In PubChem BioAssay AID274 (DTP/NCI, 2004):
“And” between values parts separate entries of the source, which are not always exact repeats. Equal entries are not always repeated. Inconclusive results and toxic doses are left out.

Test system: BDF1 mice, Lewis lung carcinoma iv, survival T/C
Test: NCI In Vivo Anticancer Drug Screen. Data for tumor model Lewis Lung Carcinoma (intravenous) in B6D2F1 (BDF1) mice
Details: endpoint: median survival time, higher = longer survival
Method: The antitumor activity of compounds was measured in mice bearing transplantable tumors. Survival or tumor size were measured and the results are expressed as the measurement made in the treated group (T) divided by the measurement made in the vehicle treated control group (C). The tumor model used in this assay is Lewis Lung Carcinoma (intravenous) in B6D2F1 (BDF1) mice

[1] = dose: 12.5 mg/kg/injection, schedule: Q01DX009 (ip), vehicle: saline with Tween-80
[2] = dose: 25.0 mg/kg/injection, schedule: Q01DX009 (ip), vehicle: saline with Tween-80
[3] = dose: 50.0 mg/kg/injection, schedule: Q01DX009 (ip), vehicle: saline with Tween-80
[4] = dose: 100.0 mg/kg/injection, schedule: Q01DX009 (ip), vehicle: saline with Tween-80
[5] = dose: 1.25 mg/kg/injection, schedule: Q01DX009 (ip), vehicle: saline
[6] = dose: 2.5 mg/kg/injection, schedule: Q01DX009 (ip), vehicle: saline
[7] = dose: 5.0 mg/kg/injection, schedule: Q01DX009 (ip), vehicle: saline
[8] = dose: 12.5 mg/kg/injection, schedule: Q01DX009 (ip), vehicle: saline
[9] = dose: 200.0 mg/kg/injection, schedule: Q01DX009 (ip), vehicle: saline
[10] = dose: 6.25 mg/kg/injection, schedule: Q01DX009 (ip), vehicle: saline with Tween-80
[11] = dose: 200.0 mg/kg/injection, schedule: Q01DX009 (ip), vehicle: saline with Tween-80

In the case of O=NN(CCCl)C(=O)NC1CCCCC1, the T/C (dose: 1.0 mg/kg/injection, schedule: Q01DX009 (ip), vehicle: Klucel (hydroxypropylcellulose) (HPC)) is reported as 106 % of control, the T/C (dose: 2.0 mg/kg/injection, schedule: Q01DX009 (ip), vehicle: Klucel (hydroxypropylcellulose) (HPC)) is reported as 108 % of control and the T/C (dose: 4.0 mg/kg/injection, schedule: Q01DX009 (ip), vehicle: Klucel (hydroxypropylcellulose) (HPC)) is reported as 120 % of control. The T/C (dose: 8.0 mg/kg/injection, schedule: Q01DX009 (ip), vehicle: Klucel (hydroxypropylcellulose) (HPC)) was 213 % of control, the T/C (dose: 16.0 mg/kg/injection, schedule: Q01DX009 (ip), vehicle: Klucel (hydroxypropylcellulose) (HPC)) was 118 % of control and the T/C (dose: 32.0 mg/kg/injection, schedule: Q01DX009 (ip), vehicle: Klucel (hydroxypropylcellulose) (HPC)) was 93 % of control.

With CC1(c2ccc(Cl)cc2)OC(=O)C(=Cc2ccc([N+](=O)[O-])s2)C(=O)O1 (centres undefined) the T/C [1] was 100 % of control, the T/C [2] was 100 % of control and the T/C [3] was 99 % of control. The T/C [4] was 98 % of control.

With O=NN(CCCl)C(=O)NC1[C@H](O)CCC[C@@H]1O (some centres undefined) the T/C (dose: 0.62 mg/kg/injection, schedule: Q01DX009 (ip), vehicle: saline) was 105 % of control, the T/C [5] was 120 % of control and the T/C [6] was 159 % of control. For the same compound, the T/C [7] was 278 % of control.

For COC(=O)CC(N)C(=O)O (centres undefined), the T/C [8] was 115 % of control, the T/C (dose: 50.0 mg/kg/injection, schedule: Q01DX009 (ip), vehicle: saline) was 95 % of control and the T/C (dose: 100.0 mg/kg/injection, schedule: Q01DX009 (ip), vehicle: saline) was 109 % of control. The T/C [9] was 100 % of control.

CC[C@@]1(O)C[C@H](OC2CC(N(C)C)C(OC3CC(O)C(OC4CCC(=O)C(C)O4)C(C)O3)C(C)O2)c2c(cc3c(c2O)C(=O)c2c(O)ccc(O)c2C3=O)[C@H]1C(=O)OC (some centres undefined) was tested, and the T/C (dose: 0.12 mg/kg/injection, schedule: Q01DX009 (ip), vehicle: water) was 103 % of control, the T/C (dose: 0.25 mg/kg/injection, schedule: Q01DX009 (ip), vehicle: water) was 103 % of control and 107 % of control and the T/C (dose: 0.5 mg/kg/injection, schedule: Q01DX009 (ip), vehicle: water) was 96 % of control and 101 % of control. For the same compound, the T/C (dose: 0.88 mg/kg/injection, schedule: Q01DX009 (ip), vehicle: water) was 117 % of control, the T/C (dose: 1.0 mg/kg/injection, schedule: Q01DX009 (ip), vehicle: water) was 103 % of control and the T/C (dose: 1.7 mg/kg/injection, schedule: Q04DX003 (ip), vehicle: water) was 94 % of control. The T/C (dose: 1.92 mg/kg/injection, schedule: Q04DX003 (ip), vehicle: water) was 110 % of control, the T/C (dose: 2.9 mg/kg/injection, schedule: Q04DX003 (ip), vehicle: water) was 100 % of control and 117 % of control and the T/C (dose: 3.9 mg/kg/injection, schedule: Q04DX003 (ip), vehicle: water) was 118 % of control. The T/C (dose: 4.8 mg/kg/injection, schedule: Q01DX001 (ip), vehicle: water) was 109 % of control, the T/C (dose: 4.8 mg/kg/injection, schedule: Q04DX003 (ip), vehicle: water) was 109 % of control and 122 % of control and the T/C (dose: 6.86 mg/kg/injection, schedule: Q01DX001 (ip), vehicle: water) was 123 % of control. For the same compound, the T/C (dose: 8.0 mg/kg/injection, schedule: Q04DX003 (ip), vehicle: water) was 104 % of control and the T/C (dose: 13.3 mg/kg/injection, schedule: Q04DX003 (ip), vehicle: water) was 86 % of control.

COc1ccc2[nH]c3ccc4cc[n+](CCN5CCC(C6CCN(CC[n+]7ccc8ccc9[nH]c%10ccc(OC)cc%10c9c8c7)CC6)CC5)cc4c3c2c1 was tested, and the T/C (dose: 12.5 mg/kg/injection, schedule: Q01DX009 (ip), vehicle: Klucel (hydroxypropylcellulose) (HPC)) was 98 % of control and the T/C (dose: 25.0 mg/kg/injection, schedule: Q01DX009 (ip), vehicle: Klucel (hydroxypropylcellulose) (HPC)) was 114 % of control.

Cc1ccc(N=NN(C)C)cc1 was tested, and the T/C [2] was 100 % of control, the T/C [3] was 105 % of control and the T/C [4] was 105 % of control.

In the case of O=C1C=CC(=O)N1c1ccc(Cl)cc1, the T/C (dose: 1.25 mg/kg/injection, schedule: Q01DX009 (ip), vehicle: Klucel (hydroxypropylcellulose) (HPC)) is reported as 100 % of control, the T/C (dose: 2.5 mg/kg/injection, schedule: Q01DX009 (ip), vehicle: Klucel (hydroxypropylcellulose) (HPC)) is reported as 95 % of control and the T/C (dose: 5.0 mg/kg/injection, schedule: Q01DX009 (ip), vehicle: Klucel (hydroxypropylcellulose) (HPC)) is reported as 96 % of control. The T/C (dose: 10.0 mg/kg/injection, schedule: Q01DX009 (ip), vehicle: Klucel (hydroxypropylcellulose) (HPC)) was 107 % of control.

In the case of CCCCc1ccc2nc(NC(=O)OC)[nH]c2c1, the T/C [10] is reported as 94 % of control, the T/C [1] is reported as 92 % of control and the T/C [2] is reported as 103 % of control. For the same compound, the T/C [3] was 102 % of control and the T/C [4] was 107 % of control.

For NC(=O)c1[nH]nc(C2OC(CO)C(O)C2O)c1O (centres undefined), the T/C (dose: 78.13 micrograms/kg/injection, schedule: Q01DX009 (ip), vehicle: water) was 98 % of control, the T/C (dose: 156.25 micrograms/kg/injection, schedule: Q01DX009 (ip), vehicle: water) was 118 % of control and the T/C (dose: 312.5 micrograms/kg/injection, schedule: Q01DX009 (ip), vehicle: water) was 87 % of control. For the same compound, the T/C (dose: 625.0 micrograms/kg/injection, schedule: Q01DX009 (ip), vehicle: water) was 122 % of control.

For Nc1nc(SCc2ccccc2)c2ncn(C3OC(CO)CC3O)c2n1 (centres undefined), the T/C (dose: 50.0 mg/kg/injection, schedule: Q01DX009 (ip), vehicle: Klucel (hydroxypropylcellulose) (HPC)) was 109 % of control.

In the case of C[C@@H]1CN(C(=O)CCOS(C)(=O)=O)[C@@H](C)CN1C(=O)CCOS(C)(=O)=O, the T/C [3] is reported as 93 % of control and the T/C [4] is reported as 101 % of control.

In the case of CC1(C)OC1CS(=O)c1ccccc1 (centres undefined), the T/C [1] is reported as 105 % of control, the T/C [2] is reported as 99 % of control and the T/C [3] is reported as 91 % of control. The T/C [4] was 96 % of control, the T/C [11] was 95 % of control and the T/C (dose: 400.0 mg/kg/injection, schedule: Q01DX009 (ip), vehicle: saline with Tween-80) was 114 % of control.

In the case of O=C1OC(C(O)CO)C(O)=C1O (centres undefined), the T/C [9] is reported as 112 % of control and the T/C (dose: 400.0 mg/kg/injection, schedule: Q01DX009 (ip), vehicle: saline) is reported as 100 % of control.

With CNc1nc(N(C)C)nc(N(C)C)n1 the T/C [8] was 96 % of control and the T/C (dose: 25.0 mg/kg/injection, schedule: Q01DX009 (ip), vehicle: saline) was 98 % of control.

Clc1cc(Cl)nc(N2CC2)n1 was tested, and the T/C [5] was 91 % of control, the T/C [6] was 103 % of control and the T/C (dose: 5.0 mg/kg/injection, schedule: Q01DX009 (ip), vehicle: saline with Tween-80) was 114 % of control. For the same compound, the T/C [7] was 103 % of control.

In the case of O=C(CCN1CC1)OCCOC(=O)CCN1CC1, the T/C (dose: 1.5 mg/kg/injection, schedule: Q01DX009 (ip), vehicle: saline) is reported as 111 % of control, the T/C (dose: 3.0 mg/kg/injection, schedule: Q01DX009 (ip), vehicle: saline) is reported as 107 % of control and the T/C (dose: 6.0 mg/kg/injection, schedule: Q01DX009 (ip), vehicle: saline) is reported as 99 % of control. The T/C (dose: 24.0 mg/kg/injection, schedule: Q01DX009 (ip), vehicle: saline) was 107 % of control.

With C[C@H](CCC(=O)O)[C@H]1CC[C@H]2[C@@H]3[C@H](O)C[C@@H]4C[C@H](O)CC[C@]4(C)[C@H]3C[C@H](O)[C@]12C (tested in a mixture with another compound) the T/C [3] was 109 % of control, the T/C [4] was 108 % of control and the T/C [11] was 121 % of control.

With C=C(C)/C([O-])=N/[N+](C)(C)CC(O)CCCCCCCCCCCC (centres undefined) the T/C (dose: 12.5 mg/kg/injection, schedule: Q01DX001 (ip), vehicle: saline) was 99 % of control, the T/C (dose: 50.0 mg/kg/injection, schedule: Q01DX001 (ip), vehicle: saline) was 86 % of control and the T/C (dose: 100.0 mg/kg/injection, schedule: Q01DX001 (ip), vehicle: saline) was 92 % of control. For the same compound, the T/C (dose: 200.0 mg/kg/injection, schedule: Q01DX001 (ip), vehicle: saline) was 104 % of control and the T/C (dose: 400.0 mg/kg/injection, schedule: Q01DX001 (ip), vehicle: saline) was 87 % of control.

For Cc1cc(/C=C/c2cc[n+](C)c3ccccc23)c(O)c2ncccc12, the T/C [10] was 95 % of control and the T/C [1] was 109 % of control.

In the case of CC(CN1CC(=O)NC(=O)C1)N1CC(=O)NC(=O)C1 (centres undefined), the T/C (dose: 64.8 mg/kg/injection, schedule: Q04DX003 (ip), vehicle: Klucel (hydroxypropylcellulose) (HPC)) is reported as 110 % of control and 112 % of control and 119 % of control, the T/C (dose: 108.0 mg/kg/injection, schedule: Q04DX003 (ip), vehicle: Klucel (hydroxypropylcellulose) (HPC)) is reported as 111 % of control and 114 % of control and the T/C (dose: 300.0 mg/kg/injection, schedule: Q04DX003 (ip), vehicle: Klucel (hydroxypropylcellulose) (HPC)) is reported as 154 % of control and 178 % of control.
